According to patent publication US20220079966A1, “HYALURONAN SYNTHESIS INHIBITION FOR TREATING AUTOIMMUNE, INFLAMMATORY, FIBROTIC, OR PROLIFERATIVE DISEASES OR DISORDERS” (The Board of Trustees of the Leland Stanford Junior …, priority 2018, published 2022):

Columns and labels:
[1] = Chemical stability of 4-MUG in fasted state simulated gastric fluid; assay type: physicochemical; details: 100 μM, FaSSGF pH 1.6, 37° C., 0-120 minutes
Procedure: To determine the chemical stability of 4-MUG, its half-life (t1/2) was evaluated. 4-MUG was tested at a concentration of 100 μM. The internal standard (IS) was prepared at 50 ng/mL with tolbutamide in DMSO and a buffer solution was prepared of fasted state simulated gastric fluid (FaSSGF) at pH 1.6. The buffer was pre-warmed at 37° C. for 15 minutes, subsequently 4-MUG was added, and the solution was vortexed. Next, 30 μL of this reaction mixture was removed at each time point for analysis. The time points included 0 minutes, 15 minutes, 30 minutes, 60 minutes and 120 minutes. The reaction was stopped at the end of the experiment by adding IS solution. The samples were centrifuged at 4,000 rpm for 15 minutes at 4° C. 100 μL of the supernatant was mixed with distilled water for further liquid chromatography with tandem mass spectrometry (LC-MS/MS) analysis. The mass spectrometry detection was performed using a SCIEX® API 4500 Qtrap® (Sciex, Redwood City, Calif.). Each compound was analyzed by reverse phase high performance liquid chromatography (HPLC). The parameters calculated were the ratio of 4-MUG, the percent of 4-MUG remaining versus time, and the estimation of 4-MUG's t1/2.

[2] = Water solubility (statement); assay type: physicochemical
[3] = cited from earlier work

Structure (SMILES)	chemical stability [1]	water solubility [2]	fraction of a single intravenous dose eliminated as the 4-MUG metabolite in urine ([3]; in humans, single intravenous dose of 4-MU)	half-life ([3]; in humans)	share of 4-MU metabolism accounted for by glucuronidation into 4-MUG ([3]; in humans)	fraction of a given dose excreted unchanged in the urine ([3]; species not given)	systemic oral bioavailability ([3]; species not given)
Cc1cc(=O)oc2cc(O[C@@H]3O[C@H](C(=O)O)[C@@H](O)[C@H](O)[C@H]3O)ccc12 [4-MUG, 4-methylumbelliferone-glucuronide]	stable	water-soluble	–	–	–	–	–
Cc1cc(=O)oc2cc(O)ccc12 [4-MU, 4-methylumbelliferone]	–	–	93%	28 min	over 90%	< 1%	< 3%
